pKd: −log10 of the molar value.
How the values were obtained:
calmodulin [1] = biological target: T1, calmodulin (Homo sapiens, UniProt P0DP23); test: native gel autoradiography of calmodulin with radiolabelled melatonin; assay type: binding; conditions: 15% polyacrylamide gel, 0.5mM CaCl2, no SDS
Description: In order to assess this, 1µl calmodulin (lmg/ml) was incubated with 1µCi 2-[^125I]-melatonin in 9µl TBSC and run on a 15% polyacrylamide gel. The gel was as the running gel of Laemmli (Nature 1970 220 680-685), but with 0.5mM CaCl2 and no SDS in both gel and buffer.

calmodulin [2] = biological target: T1, calmodulin; conditions: published value; cited from earlier work
calmodulin [3] = biological target: T1, calmodulin; conditions: cited from earlier work

Row | Compound | radioactive band of complex with calmodulin (calmodulin [1]) | half-life of the calmodulin-melatonin complex (calmodulin [2]) [min] | Ka (calmodulin [3]; affinity for calmodulin) [M⁻¹] | pKd (calmodulin [3]; binds calmodulin)
1 | COc1ccc2[nH]c([125I])c(CCNC(C)=O)c2c1 [2-[^125I]-melatonin] | no radioactive band was detected |  |  | 
2 | COc1ccc2[nH]cc(CCNC(C)=O)c2c1 [melatonin] | no complex is detected | 2 |  | 
3 | mastoparan |  |  | 3.3e+09 | 9.52

Source: EP0726951B1, “MANUFACTURE AND USE OF POLYPEPTIDES TAGGED USING BINDING MOLECULES” (MEDICAL RESEARCH COUNCIL, priority 1993, dated 1995)
